{"source": "patent US8802638B1", "about": "“Flavonoid treatment of glycogen synthase kinase-based disease” (University of South Florida, priority 2007, dated 2014)", "key": {"[1]": {"test_system": "primary neuronal cells derived from Tg2576 mice", "experiment": "APP proteolysis (Aβ ELISA, IP, APP CTF Western blot) in Tg2576 mouse-derived primary neuronal cells", "type": "cell-based", "conditions": "12 hrs", "method": "Cultured cells or mouse brain were lysed in ice-cold lysis buffer described above, and an aliquot corresponding to 50 μg of total protein was electrophoretically separated using 12% Tris-HCl or 16.5% Tris-tricine gels. Electrophoresed proteins were then transferred to PVDF membranes, washed in dH2O, and blocked for 1 hr at ambient temperature in Tris-buffered saline (TBS; Bio-Rad) containing 5% (w/v) non-fat dry milk. After blocking, membranes were hybridized for 1 hr at ambient temperature with various primary antibodies. Membranes were then washed 3× for 5 min each in dH2O and incubated for 1 hr at ambient temperature with the appropriate HRP-conjugated secondary antibody (1:1,000). Antibodies were obtained against the amino-terminus and carboxyl-terminus of PS1 (Chemicon, Temecula, Calif.), amino-terminus and carboxyl-terminus of APP (22C11), actin (Roche, Basel, Switzerland), Aβ (6E10, 48G) (Signet Laboratories, Dedham, Mass.), phosphor-GSK3α (ser^21, clone BK202) (Upstate, Lake Placid, N.Y.), phospho-GSK3α/β (pTyr^279/216) (Sigma), phospho-GSK-3β (Ser^9) (Sigma) and total GSK-3α/β (Sigma). All antibodies were diluted in TBS containing 5% (w/v) of non-fat dry milk. […] Densitometric analysis was done as previously described using a FluorS Multiimager with Quantity One™ software (39). […] Antibodies used for Western blot included the APP-carboxyl-terminal antibody (1:50)), amino-terminal APP antibody (clone 22C11), or 6E10 (1:1,000), or actin antibody (1:1,500; as an internal reference control). γ-secretase activity was quantified in cell lysates using available kits based on secretase-specific peptides conjugated to fluorogenic reporter molecules.\nSweAPP N2a cells and primary neuronal cells derived from Tg2576 mice were treated with varying doses of luteolin to examine luteolin's effect on APP proteolysis. Cellular extracts were collected and analyzed using immunoprecipitation (IP), Western blot, and ELISA. […] SweAPP N2a and primary Tg2576-derived neuronal cells CTF profiles were analyzed following luteolin treatment to determine at which level luteolin impacts amyloid processing."}, "PS1-APP association": {"test_system": "PS1-APP association", "experiment": "PS1-APP association, immunoprecipitation/Western blot in SweAPP N2a cells", "type": "cell-based, murine", "conditions": "20 μM for 4 hrs or siRNA transfection", "method": "Cultured cells or mouse brain were lysed in ice-cold lysis buffer described above, and an aliquot corresponding to 50 μg of total protein was electrophoretically separated using 12% Tris-HCl or 16.5% Tris-tricine gels. Electrophoresed proteins were then transferred to PVDF membranes, washed in dH2O, and blocked for 1 hr at ambient temperature in Tris-buffered saline (TBS; Bio-Rad) containing 5% (w/v) non-fat dry milk. After blocking, membranes were hybridized for 1 hr at ambient temperature with various primary antibodies. Membranes were then washed 3× for 5 min each in dH2O and incubated for 1 hr at ambient temperature with the appropriate HRP-conjugated secondary antibody (1:1,000). All antibodies were diluted in TBS containing 5% (w/v) of non-fat dry milk. Blots were developed using the luminol reagent (Pierce Biotechnology). Densitometric analysis was done as previously described using a FluorS Multiimager with Quantity One™ software. Immunoprecipitation was performed for detection of sAPP-α, sAPP-β and Aβ by incubating 200 μg of total protein of each sample with various sequential combinations of 6E10 (1:100) and/or 22C11 (1:100) antibodies overnight with gentle rocking at 4° C., and 10 μL of 50% protein A-Sepharose beads were then added to the sample (1:10; Sigma) prior to gentle rocking for an additional 4 hrs at 4° C. Following washes with 1× cell lysis buffer, samples were subjected to Western blot as described above. Antibodies used for Western blot included the APP-carboxyl-terminal antibody (1:50)), amino-terminal APP antibody (clone 22C11), or 6E10 (1:1,000), or actin antibody (1:1,500; as an internal reference control). γ-secretase activity was quantified in cell lysates using available kits (R&D Systems, Minneapolis, Minn.), based on secretase-specific peptides conjugated to fluorogenic reporter molecules.\nCell lysates of luteolin-treated SweAPP N2a cells were immunoprecipitated by PS1 antibody and probed for APP to clarify how phospho-PS1 CTF isoforms may regulate γ-secretase activity, seen in FIGS. 26(A) through 27(B). As illustrated in FIGS. 26(A) and (B), the APP-PS1 association is disrupted by luteolin, SB-415286 treatment, and GSK-3α siRNA. […] Thus, GSK-3α or, more specifically, downstream phosphorylation of the PS1 CTF plays an essential role in regulating the association of γ-secretase complex with its APP substrate."}, "GSK-3α/β": {"test_system": "GSK-3α/β", "experiment": "Western blot of phosphorylated GSK-3α/β forms in SweAPP N2a cells", "type": "cell-based, murine", "conditions": "20 μM", "method": "Cultured cells or mouse brain were lysed in ice-cold lysis buffer described above, and an aliquot corresponding to 50 μg of total protein was electrophoretically separated using 12% Tris-HCl or 16.5% Tris-tricine gels. Electrophoresed proteins were then transferred to PVDF membranes, washed in dH2O, and blocked for 1 hr at ambient temperature in Tris-buffered saline (TBS; Bio-Rad) containing 5% (w/v) non-fat dry milk. After blocking, membranes were hybridized for 1 hr at ambient temperature with various primary antibodies. Membranes were then washed 3× for 5 min each in dH2O and incubated for 1 hr at ambient temperature with the appropriate HRP-conjugated secondary antibody (1:1,000). Antibodies were obtained against the amino-terminus and carboxyl-terminus of PS1 (Chemicon, Temecula, Calif.), amino-terminus and carboxyl-terminus of APP (22C11), actin (Roche, Basel, Switzerland), Aβ (6E10, 48G) (Signet Laboratories, Dedham, Mass.), phosphor-GSK3α (ser^21, clone BK202) (Upstate, Lake Placid, N.Y.), phospho-GSK3α/β (pTyr^279/216) (Sigma), phospho-GSK-3β (Ser^9) (Sigma) and total GSK-3α/β (Sigma). All antibodies were diluted in TBS containing 5% (w/v) of non-fat dry milk. Blots were developed using the luminol reagent (Pierce Biotechnology). Densitometric analysis was done as previously described using a FluorS Multiimager with Quantity One™ software (39). […] Antibodies used for Western blot included the APP-carboxyl-terminal antibody (1:50)), amino-terminal APP antibody (clone 22C11), or 6E10 (1:1,000), or actin antibody (1:1,500; as an internal reference control). γ-secretase activity was quantified in cell lysates using available kits based on secretase-specific peptides conjugated to fluorogenic reporter molecules.\nThe effect luteolin had on a variety of proteins related to and/or required for proper functioning of the γ-secretase complex was evaluated to establish the mechanism whereby luteolin modulates γ-secretase activity and subsequent Aβ generation. […]"}}}
{"smiles": "O=c1cc(-c2ccc(O)c(O)c2)oc2cc(O)cc(O)c12", "note": "[luteolin]", "values": [{"measurement": "accumulation of both α and β CTFs (increase over control)", "setting": "[1]; dose dependent, Western blot densitometry", "value": "2-3 fold"}, {"measurement": "Aβ1-40, 42 peptide generation abrogated", "setting": "[1]; luteolin 20 μM", "value": "> 70", "unit": "%"}, {"measurement": "Aβ1-40, 42 peptide generation abrogated", "setting": "[1]; luteolin 40 μM", "value": "> 85", "unit": "%"}, {"measurement": "ratio of APP to actin (full-length APP levels)", "setting": "PS1-APP association; 6E10 Western blot of lysates", "value": "no significant changes"}, {"measurement": "APP-PS1 association", "setting": "PS1-APP association; IP with anti-PS1 CTF, 6E10 blot", "value": "disrupted"}, {"measurement": "overall expression of GSK3-α or β", "setting": "GSK-3α/β; Western blot", "value": "no significant changes"}, {"measurement": "selectivity of GSK-3α over GSK-3β inactivation", "setting": "GSK-3α/β; time course", "value": "selectively inactivates GSK-3α isoforms over β isoforms"}]}
